Consider two compounds from US12343328B2, “Dialkyl tryptamines and their therapeutic uses” (CAAMTECH, INC., priority 2020, dated 2025).

Molecules are shown by their SMILES.

The test concerns murine Head Twitch Response. Put plainly: murine Head Twitch Response (HTR). The following applies: Mus musculus, read-out: HTR ED50.

The ED50 is the dose that gives a 50% effect, or the effect in half of the subjects. `CN(C)CCc1c[nH]c2cccc(O)c12` [Psilocin]: the ED50 came out at 0.54 µmol/kg. In the case of `CN(C)CCc1c[nH]c2cccc(OP(=O)(O)O)c12` [Psilocybin] it was 1.02 µmol/kg.
